Experimental data from PubChem BioAssay AID330 (DTP/NCI, 2004).
Toxic doses and inconclusive results are not listed. Rule for the calls: active = survival T/C of 150% or more; inactive = T/C below 125% in these data.

Test system: P388 leukemia ip, CD2F1 mice, survival T/C
Experiment: NCI In Vivo Anticancer Drug Screen. Data for tumor model P388 Leukemia (intraperitoneal) in CD2F1 (CDF1) mice
Details: endpoint: median survival time, higher = longer survival
Summary of the method: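 Mice carrying the transplanted tumor received test compound or vehicle. Survival was recorded in each group, and the value is the treated-group measurement divided by that of the vehicle-treated control group.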

[1] = dose: 50.0 mg/kg/injection, schedule: Q01DX005 (ip), vehicle: saline with Tween-80
[2] = dose: 50.0 mg/kg/injection, schedule: Q01DX005 (ip), vehicle: Klucel (hydroxypropylcellulose) (HPC)
[3] = dose: 100.0 mg/kg/injection, schedule: Q01DX005 (ip), vehicle: Klucel (hydroxypropylcellulose) (HPC)
[4] = dose: 200.0 mg/kg/injection, schedule: Q01DX005 (ip), vehicle: Klucel (hydroxypropylcellulose) (HPC)
[5] = dose: 50.0 mg/kg/injection, schedule: Q01DX009 (ip), vehicle: saline with Tween-80
[6] = dose: 100.0 mg/kg/injection, schedule: Q01DX009 (ip), vehicle: saline with Tween-80
[7] = dose: 200.0 mg/kg/injection, schedule: Q01DX009 (ip), vehicle: saline with Tween-80
[8] = dose: 60.0 mg/kg/injection, schedule: Q01DX005 (ip), vehicle: saline with Tween-80
[9] = dose: 120.0 mg/kg/injection, schedule: Q01DX005 (ip), vehicle: saline with Tween-80
[10] = dose: 240.0 mg/kg/injection, schedule: Q01DX005 (ip), vehicle: saline with Tween-80

Measured: T/C

COC(=O)C1CC2c3cc4c(cc3CCN2CC1C(=O)OC)OCO4 (centres undefined)
inactive: dose: 0.63 mg/kg/injection, schedule: Q01DX009 (ip), vehicle: distilled water + Tween-80 101 % of control | dose: 1.25 mg/kg/injection, schedule: Q01DX009 (ip), vehicle: distilled water + Tween-80 99 % of control | dose: 2.5 mg/kg/injection, schedule: Q01DX009 (ip), vehicle: distilled water + Tween-80 106 % of control | dose: 5.0 mg/kg/injection, schedule: Q01DX009 (ip), vehicle: distilled water + Tween-80 97 % of control | dose: 10.0 mg/kg/injection, schedule: Q01DX009 (ip), vehicle: distilled water + Tween-80 108 % of control | dose: 20.0 mg/kg/injection, schedule: Q01DX009 (ip), vehicle: distilled water + Tween-80 106 % of control

c1ccc2c(c1)Cc1c(-c3ccncc3)n[nH]c1-2
inactive: dose: 25.0 mg/kg/injection, schedule: Q04DX003 (ip), vehicle: saline with Tween-80 100 % of control | dose: 50.0 mg/kg/injection, schedule: Q04DX003 (ip), vehicle: saline with Tween-80 98 % of control | dose: 100.0 mg/kg/injection, schedule: Q04DX003 (ip), vehicle: saline with Tween-80 94 % of control | dose: 200.0 mg/kg/injection, schedule: Q04DX003 (ip), vehicle: saline with Tween-80 94 % of control

CC1(CC(C)(C)C2CCCCC2)OCCO1
inactive: dose: 6.25 mg/kg/injection, schedule: Q01DX009 (ip), vehicle: water 104 % of control | dose: 12.5 mg/kg/injection, schedule: Q01DX009 (ip), vehicle: water 108 % of control | dose: 25.0 mg/kg/injection, schedule: Q01DX009 (ip), vehicle: water 107 % of control | dose: 50.0 mg/kg/injection, schedule: Q01DX009 (ip), vehicle: water 109 % of control | dose: 100.0 mg/kg/injection, schedule: Q01DX009 (ip), vehicle: water 90 % of control

NC(=S)N/N=C/c1ccncn1
inactive: dose: 6.25 mg/kg/injection, schedule: Q01DX009 (ip), vehicle: Klucel (hydroxypropylcellulose) (HPC) 93 % of control | dose: 6.25 mg/kg/injection, schedule: Q04DX003 (ip), vehicle: Klucel (hydroxypropylcellulose) (HPC) 111 % of control | dose: 12.5 mg/kg/injection, schedule: Q01DX009 (ip), vehicle: Klucel (hydroxypropylcellulose) (HPC) 92 % of control | dose: 12.5 mg/kg/injection, schedule: Q04DX003 (ip), vehicle: Klucel (hydroxypropylcellulose) (HPC) 101 % of control | dose: 12.5 mg/kg/injection, schedule: Q04DX003 (ip), vehicle: saline with Tween-80 123 % of control | dose: 25.0 mg/kg/injection, schedule: Q01DX009 (ip), vehicle: Klucel (hydroxypropylcellulose) (HPC) 100 % of control | dose: 25.0 mg/kg/injection, schedule: Q04DX003 (ip), vehicle: Klucel (hydroxypropylcellulose) (HPC) 111 % of control | dose: 50.0 mg/kg/injection, schedule: Q04DX003 (ip), vehicle: Klucel (hydroxypropylcellulose) (HPC) 112 % of control

Cc1ccc(N=C2c3ccccc3-c3ccc(NC(=O)c4ccccc4)cc32)cc1
inactive: dose: 3.12 mg/kg/injection, schedule: Q01DX005 (ip), vehicle: saline with Tween-80 93 % of control | dose: 6.25 mg/kg/injection, schedule: Q01DX005 (ip), vehicle: saline with Tween-80 93 % of control | dose: 12.5 mg/kg/injection, schedule: Q01DX005 (ip), vehicle: saline with Tween-80 86 % of control | [1] 86 % of control

CC(=O)Nc1cc(N2CCCCC2)c(N)c2c1C(=O)c1ccccc1C2=O
inactive: [2] 102 % of control | [3] 97 % of control | [4] 98 % of control

COc1cccc([B-]23OCC[N+]2(CNC(=O)c2ccccc2O)CCO3)c1 (centres undefined)
inactive: [2] 106 % of control | [3] 104 % of control | [4] 112 % of control

CN=C1C=CC(=C(c2ccc(N(C)C)cc2)c2ccc(N(C)C)cc2)C=C1
inactive: dose: 6.25 mg/kg/injection, schedule: Q01DX005 (ip), vehicle: Klucel (hydroxypropylcellulose) (HPC) 119 % of control

CC(C)=NNc1cc(N)nc2c1ncn2C1OC(CO)C(O)C1O (centres undefined)
inactive: dose: 12.5 mg/kg/injection, schedule: Q01DX005 (ip), vehicle: water 97 % of control | dose: 25.0 mg/kg/injection, schedule: Q01DX005 (ip), vehicle: water 94 % of control | dose: 50.0 mg/kg/injection, schedule: Q01DX005 (ip), vehicle: water 98 % of control | dose: 100.0 mg/kg/injection, schedule: Q01DX005 (ip), vehicle: water 96 % of control | dose: 200.0 mg/kg/injection, schedule: Q01DX005 (ip), vehicle: water 106 % of control

CC(=O)NC(Cc1c[nH]c2ccccc12)C(C)=O (centres undefined)
inactive: dose: 25.0 mg/kg/injection, schedule: Q01DX009 (ip), vehicle: saline with Tween-80 89 % of control | [5] 91 % of control | [6] 106 % of control | [7] 97 % of control

NC(C(=O)O)/C1=C/CCCCCC1 (centres undefined)
inactive: dose: 25.0 mg/kg/injection, schedule: Q01DX005 (ip), vehicle: Klucel (hydroxypropylcellulose) (HPC) 106 % of control | [2] 101 % of control | [3] 98 % of control | [4] 101 % of control

CN1C(=O)NC(c2ccc(Cl)cc2)(c2ccc(Cl)cc2)C1=O
inactive: dose: 5.0 mg/kg/injection, schedule: Q04DX003 (ip), vehicle: other 105 % of control | dose: 10.0 mg/kg/injection, schedule: Q04DX003 (ip), vehicle: other 104 % of control | dose: 20.0 mg/kg/injection, schedule: Q04DX003 (ip), vehicle: other 107 % of control | dose: 25.0 mg/kg/injection, schedule: Q04DX003 (ip), vehicle: other 101 % of control | dose: 40.0 mg/kg/injection, schedule: Q04DX003 (ip), vehicle: other 118 % of control | dose: 50.0 mg/kg/injection, schedule: Q04DX003 (ip), vehicle: other 119 % of control

CC1=C(C(=O)CC(=O)C(=O)Nc2ccc(C)cc2)Sc2ccccc2N1
inactive: [8] 105 % of control | [9] 108 % of control | [10] 106 % of control

COc1ccc(/C=C2/C/C(=C/c3ccc(OC)cc3)C2=O)cc1
inactive: dose: 100.0 mg/kg/injection, schedule: Q04DX003 (ip), vehicle: Klucel (hydroxypropylcellulose) (HPC) 95 % of control | dose: 200.0 mg/kg/injection, schedule: Q04DX003 (ip), vehicle: Klucel (hydroxypropylcellulose) (HPC) 103 % of control | dose: 400.0 mg/kg/injection, schedule: Q04DX003 (ip), vehicle: Klucel (hydroxypropylcellulose) (HPC) 97 % of control

CCOC(=O)C1=C(C)NC(=O)NC1c1cc(OC)c(OC)c(OC)c1 (centres undefined)
inactive: [2] 98 % of control | [3] 96 % of control | [4] 94 % of control

COc1cc(N=Nc2ccccc2)cc(/C=N\NC(=S)Nc2ccc(C)cc2)c1O
inactive: [1] 94 % of control | dose: 100.0 mg/kg/injection, schedule: Q01DX005 (ip), vehicle: saline with Tween-80 96 % of control

C=C(C)C#CC1(O)C=C(OC)C(OC)=CC1=O (centres undefined)
inactive: [8] 105 % of control | [9] 107 % of control | [10] 88 % of control

O=C(O)c1ccc2c(c1)C(=O)c1c(O)ccc(O)c1C2=O
inactive: [5] 92 % of control | [6] 103 % of control | [7] 103 % of control

CCOC(=O)COc1cc2c(cc1C(CC)c1ccccc1)OCO2 (centres undefined)
inactive: [2] 97 % of control | [3] 102 % of control | [4] 102 % of control

CC/C(C)=C1\OC(=O)C(C)C(O)C(Cc2cccnc2)NC(=O)C(NC(=O)c2ncccc2O)C(C)OC1=O (centres undefined)
inactive: dose: 18.75 mg/kg/injection, schedule: Q01DX009 (ip), vehicle: saline with Tween-80 88 % of control | dose: 37.5 mg/kg/injection, schedule: Q01DX009 (ip), vehicle: saline with Tween-80 86 % of control | dose: 150.0 mg/kg/injection, schedule: Q01DX009 (ip), vehicle: saline with Tween-80 86 % of control

CCN(CC)c1ccc(/C=C2\CCc3ccccc3C2=O)cc1
inactive: dose: 50.0 mg/kg/injection, schedule: Q01DX009 (ip), vehicle: Klucel (hydroxypropylcellulose) (HPC) 108 % of control | dose: 100.0 mg/kg/injection, schedule: Q01DX009 (ip), vehicle: Klucel (hydroxypropylcellulose) (HPC) 111 % of control | dose: 200.0 mg/kg/injection, schedule: Q01DX009 (ip), vehicle: Klucel (hydroxypropylcellulose) (HPC) 106 % of control
